# In PubChem BioAssay AID330 (DTP/NCI, 2004):
# “And” between values parts separate entries of the source, which are not always exact repeats. Identical values can stand only once. Toxic doses and inconclusive results are not listed.
# Test system: P388 leukemia ip, CD2F1 mice, survival T/C
# Experiment: NCI In Vivo Anticancer Drug Screen. Data for tumor model P388 Leukemia (intraperitoneal) in CD2F1 (CDF1) mice
# Details: endpoint: median survival time, higher = longer survival
# Method in brief: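 Mice carrying the transplanted tumor received test compound or vehicle. Survival was recorded in each group, and the value is the treated-group measurement divided by that of the vehicle-treated control group.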
# [1] = dose: 50.0 mg/kg/injection, schedule: Q01DX005 (ip), vehicle: saline with Tween-80
# [2] = dose: 100.0 mg/kg/injection, schedule: Q01DX005 (ip), vehicle: saline with Tween-80
# [3] = dose: 200.0 mg/kg/injection, schedule: Q01DX005 (ip), vehicle: saline with Tween-80
# [4] = dose: 50.0 mg/kg/injection, schedule: Q01DX005 (ip), vehicle: Klucel (hydroxypropylcellulose) (HPC)
# [5] = dose: 100.0 mg/kg/injection, schedule: Q01DX005 (ip), vehicle: Klucel (hydroxypropylcellulose) (HPC)
structure (smiles),measurement,setting,value
O=C(O)C(Cc1ccc(O)cc1)NSc1ccccc1[N+](=O)[O-] (stereo unspecified),T/C,"dose: 25.0 mg/kg/injection, schedule: Q01DX009 (ip), vehicle: water",111 % of control
same,T/C,"dose: 50.0 mg/kg/injection, schedule: Q01DX009 (ip), vehicle: water",108 % of control
same,T/C,"dose: 100.0 mg/kg/injection, schedule: Q01DX009 (ip), vehicle: water",104 % of control
same,T/C,"dose: 200.0 mg/kg/injection, schedule: Q01DX009 (ip), vehicle: water",110 % of control
C1=[N+]2N=C(SCc3ccccc3)S[B-]2([C+]2CCCCC2)Oc2ccccc21 (stereo unspecified),T/C,[1],91 % of control
same,T/C,[2],94 % of control
same,T/C,[3],91 % of control
C[n+]1c(/C=C/c2ccc([N+](=O)[O-])cc2)ccc2ccccc21,T/C,"dose: 3.3 mg/kg/injection, schedule: Q01DX009 (ip), vehicle: saline sonified",100 % of control
same,T/C,"dose: 6.5 mg/kg/injection, schedule: Q01DX009 (ip), vehicle: saline sonified",111 % of control
same,T/C,"dose: 12.5 mg/kg/injection, schedule: Q01DX009 (ip), vehicle: saline sonified",111 % of control
CCOC1N(c2ccc(Cl)cc2)CN(C)CC1(C)C (stereo unspecified),T/C,"dose: 50.0 mg/kg/injection, schedule: Q01DX009 (ip), vehicle: saline with Tween-80",117 % of control
same,T/C,"dose: 100.0 mg/kg/injection, schedule: Q01DX009 (ip), vehicle: saline with Tween-80",120 % of control
CC(=O)N(OS(C)(=O)=O)C1CCCCC1,T/C,"dose: 50.0 mg/kg/injection, schedule: Q01DX007 (ip), vehicle: saline with Tween-80",92 % of control
same,T/C,"dose: 100.0 mg/kg/injection, schedule: Q01DX007 (ip), vehicle: saline with Tween-80",100 % of control
same,T/C,"dose: 200.0 mg/kg/injection, schedule: Q01DX007 (ip), vehicle: saline with Tween-80",90 % of control
O=c1c(O)cc2c(O)oc3c(=O)c(O)c(O)c4c(O)oc1c2c43,T/C,"dose: 25.0 mg/kg/injection, schedule: Q01DX009 (ip), vehicle: suspension in saline",114 % of control and 97 % of control
same,T/C,"dose: 50.0 mg/kg/injection, schedule: Q01DX009 (ip), vehicle: suspension in saline",111 % of control and 97 % of control
same,T/C,"dose: 100.0 mg/kg/injection, schedule: Q01DX009 (ip), vehicle: suspension in saline",112 % of control and 98 % of control
same,T/C,"dose: 200.0 mg/kg/injection, schedule: Q01DX009 (ip), vehicle: suspension in saline",103 % of control and 114 % of control
N#Cc1sc(SCC(=O)O)c(-[n+]2ccccc2)c1N,T/C,"dose: 25.0 mg/kg/injection, schedule: Q04DX002 (ip), vehicle: saline with Tween-80",95 % of control
same,T/C,"dose: 50.0 mg/kg/injection, schedule: Q04DX002 (ip), vehicle: saline with Tween-80",104 % of control
same,T/C,"dose: 100.0 mg/kg/injection, schedule: Q04DX002 (ip), vehicle: saline with Tween-80",99 % of control
COC1=CC(=O)C2CC=CC(CC(=O)O)C2(C)C1=O (stereo unspecified),T/C,[4],108 % of control
same,T/C,[5],103 % of control
CCOC(=O)c1cccc2c(=O)c3c([nH]c12)C(=O)c1c([nH]c2c(C(=O)OCC)cccc2c1=O)C3=O,T/C,"dose: 50.0 mg/kg/injection, schedule: Q01DX009 (ip), vehicle: Klucel (hydroxypropylcellulose) (HPC)",98 % of control
same,T/C,"dose: 100.0 mg/kg/injection, schedule: Q01DX009 (ip), vehicle: Klucel (hydroxypropylcellulose) (HPC)",90 % of control
same,T/C,"dose: 200.0 mg/kg/injection, schedule: Q01DX009 (ip), vehicle: Klucel (hydroxypropylcellulose) (HPC)",90 % of control
c1ccc(Nc2nnc(-c3ccc4c(c3)OCO4)o2)cc1,T/C,[4],91 % of control
same,T/C,[5],92 % of control
same,T/C,"dose: 200.0 mg/kg/injection, schedule: Q01DX005 (ip), vehicle: Klucel (hydroxypropylcellulose) (HPC)",100 % of control
CCC1C=Cc2ccccc2NC1 (stereo unspecified),T/C,[1],100 % of control
same,T/C,[2],94 % of control
same,T/C,[3],98 % of control
Cc1cc(NS(=O)(=O)c2ccc(N=c3c4ccccc4n(C)c4ccccc34)cc2)no1,T/C,[1],103 % of control
same,T/C,[2],102 % of control
same,T/C,[3],103 % of control
COc1ccc2[nH]c3c(c2c1)C(c1ccccc1)c1ccccc1-3 (stereo unspecified),T/C,"dose: 12.5 mg/kg/injection, schedule: Q01DX005 (ip), vehicle: saline with Tween-80",100 % of control
same,T/C,"dose: 25.0 mg/kg/injection, schedule: Q01DX005 (ip), vehicle: saline with Tween-80",88 % of control
same,T/C,[1],90 % of control
Cc1ccc(N=CN(C)C)c(Cl)c1,T/C,"dose: 12.5 mg/kg/injection, schedule: Q04DX003 (ip), vehicle: Klucel (hydroxypropylcellulose) (HPC)",103 % of control
same,T/C,"dose: 25.0 mg/kg/injection, schedule: Q04DX003 (ip), vehicle: Klucel (hydroxypropylcellulose) (HPC)",101 % of control
